Assay results taken from patent publication US20210207064A1, “COMPOUND FOR RESTORING CONTAMINATED SOIL OR CONTAMINATED WATER” (FNG RESEARCH CO., LTD., priority 2018, published 2021).

Columns and labels:
[1] = Heavy metal removal ability test in contaminated soil (ICP-MS), arsenic; conditions: for Arsenic (As) Adsorption amount: contaminated soil; for Arsenic (As) Adsorption rate: relative to EDTA control
Description: (§1) (1) Preparation of Soil Contaminated with Heavy Metal
(§2) After collecting and pulverizing uncontaminated soil, fine particles obtained by using a mesh were mixed with the aqueous heavy metal solution to prepare soil samples contaminated with heavy metals.
(§3) Each 3 ml of the prepared aqueous solution was added to a soil sample contaminated with heavy metals and mixed for 5 minutes.
(§4) 50 ml of distilled water was added to the contaminated soil mixed with the aqueous solution for restoring soil, stirred for 20 minutes, and settled for 1 hour, and a supernatant was prepared as a sample solution.
(§5) The prepared sample solution was analyzed for the heavy metal component using an Inductively Coupled Plasma Mass Spectrometer (ICP-MS) (Xseries™ 2, Thermo Fisher Scientific, UK).
(§6) Adsorption rate of heavy metals (%)=(Adsorption amount of Embodiment/Adsorption amount of Control)×100 Equation 1

[2] = Heavy metal removal ability test in contaminated soil (ICP-MS), cadmium; conditions: for Cadmium (Cd) Adsorption amount: contaminated soil; for Cadmium (Cd) Adsorption rate: relative to EDTA control
Description: as §1, §2, §3, §4, §5, §6

[3] = Heavy metal removal ability test in contaminated soil (ICP-MS), nickel; conditions: for Nickel (Ni) Adsorption amount: contaminated soil; for Nickel (Ni) Adsorption rate: relative to EDTA control
Description: as §1, §2, §3, §4, §5, §6

[4] = test system: human skin; experiment: Skin irritation test of active ingredient (patch method, CTFA guidelines); format: in vivo; conditions: 24 h patch; for Test result (number of subject) (+) / Test result (number of subject) (++) / Test result (number of subject) (±) / Test result (number of subject) (−): 20 people; for Test result (number of subject) (+): (+) apparent reddening; for Test result (number of subject) (++): (++) more reddened and swollen; for Test result (number of subject) (±): (±) slightly reddish; for Test result (number of subject) (−): (−) no erythema
Description: A filter paper disk was placed in an 8 mm diameter, 10 panels of pin chamber.
After 24 hours, the pin chamber was removed, and skin conditions were visually observed. The degree and grade for skin irritation were calculated according to the following Equation 2, and the results are shown in Table 4 below.
[Criteria for Skin Irritation]
(−): No erythema or particularly no symptoms; (±): slightly reddish than the periphery; (+): Apparent reddening than periphery; (++): More reddened and swollen than periphery.
[Grade for Skin Irritation]
Degree of irritation 0-0.1: Grade I (unstimulated);
Degree of irritation 0.11-0.3: Grade II (weakly stimulated);
Degree of irritation 0.31-0.5: Grade III (moderately stimulated);
Degree of irritation 0.51 or more: Grade IV (strongly stimulated)

[5] = Formaldehyde (formalin) removing ability test (GC); conditions: 2.0% formaldehyde solution, 3 molar equivalents of compound, room temperature; for Formaldehyde GC Area, 30 min: after 30 min; for Formaldehyde GC Area, 180 min: after 180 min; for Formaldehyde GC Area, Initial: initial state
[6] = Heavy metal removal ability test in contaminated soil around a factory (WAK-Me test kit); conditions: 1.0 wt % aqueous solution, colour comparison test kit
Description: The contaminated soil around the factory in the industrial complex was collected, pulverized, and meshed to prepare fine particles of soil samples.
Each 3 ml of aqueous solutions for restoring soil was added to soil samples and mixed for 5 minutes.

| SMILES | Arsenic (As) Adsorption amount ([1]; content 0.5% aqueous solution) | Arsenic (As) Adsorption rate ([1]; content 0.5%) | Arsenic (As) Adsorption amount ([1]; content 1.0% aqueous solution) | Arsenic (As) Adsorption rate ([1]; content 1.0%) | Arsenic (As) Adsorption amount ([1]; content 2.0% aqueous solution) | Arsenic (As) Adsorption rate ([1]; content 2.0%) | Cadmium (Cd) Adsorption amount ([2]; content 0.5% aqueous solution) | Cadmium (Cd) Adsorption rate ([2]; content 0.5%) | Cadmium (Cd) Adsorption amount ([2]; content 1.0% aqueous solution) | Cadmium (Cd) Adsorption rate ([2]; content 1.0%) | Cadmium (Cd) Adsorption amount ([2]; content 2.0% aqueous solution) | Cadmium (Cd) Adsorption rate ([2]; content 2.0%) | Nickel (Ni) Adsorption amount ([3]; content 0.5% aqueous solution) | Nickel (Ni) Adsorption rate ([3]; content 0.5%) | Nickel (Ni) Adsorption amount ([3]; content 1.0% aqueous solution) | Nickel (Ni) Adsorption rate ([3]; content 1.0%) | Nickel (Ni) Adsorption amount ([3]; content 2.0% aqueous solution) | Nickel (Ni) Adsorption rate ([3]; content 2.0%) | Test result (number of subject) (+) ([4]; content 0.1 wt %) | Test result (number of subject) (++) ([4]; content 0.1 wt %) | other results |
| --- | --- | --- | --- | --- | --- | --- | --- | --- | --- | --- | --- | --- | --- | --- | --- | --- | --- | --- | --- | --- | --- |
| O=C(O)c1ccc(N2CCN(c3ccc(C(=O)O)o3)CCN(c3ccc(C(=O)O)o3)CCN(c3ccc(C(=O)O)o3)CC2)o1 [Embodiment 8, 5,5′,5″,5′″-(1,4,7,10-tetraazacyclododecane-1,4,7,10-tetrayl)tetrakis(furan-2-carboxylic Acid)] | 39 ppm | 156% | 47 ppm | 188% | 49 ppm | 196% | 61 ppm | 149% | 64 ppm | 156% | 71 ppm | 173% | 86 ppm | 176% | 96 ppm | 196% | 99 ppm | 202% | 0 | 0 | Test result (number of subject) (±) ([4]; content 0.1 wt %): 0; Test result (number of subject) (−) ([4]; content 0.1 wt %): 20; Degree of irritation ([4]; content 0.1 wt %): 0; Grade for skin irritation ([4]; content 0.1 wt %): I (Degree of irritation 0-0.1: Grade I (unstimulated)); Test result (number of subject) (+) ([4]; content 0.5 wt %): 0; Test result (number of subject) (++) ([4]; content 0.5 wt %): 0; Test result (number of subject) (±) ([4]; content 0.5 wt %): 0; Test result (number of subject) (−) ([4]; content 0.5 wt %): 20; Degree of irritation ([4]; content 0.5 wt %): 0; Grade for skin irritation ([4]; content 0.5 wt %): I (Degree of irritation 0-0.1: Grade I (unstimulated)); Test result (number of subject) (+) ([4]; content 1.0 wt %): 0; Test result (number of subject) (++) ([4]; content 1.0 wt %): 0; Test result (number of subject) (±) ([4]; content 1.0 wt %): 2; Test result (number of subject) (−) ([4]; content 1.0 wt %): 18; Degree of irritation ([4]; content 1.0 wt %): 0.10; Grade for skin irritation ([4]; content 1.0 wt %): I (Degree of irritation 0-0.1: Grade I (unstimulated)); Formaldehyde GC Area, 30 min [5]: 0.168 mAU*min; Formaldehyde GC Area, 180 min [5]: 0 mAU*min; Formaldehyde GC Area, Initial [5]: 0.305 mAU*min; Total amount (Cu, Zn, Mn, Ni, Cd) [6]: ≤5 ppm |
| O=C(O)CN1CCCN(CC(=O)O)CCN(CC(=O)O)CCCN(CC(=O)O)CC1 [Embodiment 9, 2,2′,2″,2′″-(1,4,8,11-tetraazacyclotetradecane-1,4,8,11-tetrayl)tetraacetic Acid] | 42 ppm | 168% | 46 ppm | 184% | 48 ppm | 192% | 61 ppm | 149% | 66 ppm | 161% | 70 ppm | 171% | 76 ppm | 155% | 85 ppm | 173% | 96 ppm | 196% | 0 | 0 | Test result (number of subject) (±) ([4]; content 0.1 wt %): 0; Test result (number of subject) (−) ([4]; content 0.1 wt %): 20; Degree of irritation ([4]; content 0.1 wt %): 0; Grade for skin irritation ([4]; content 0.1 wt %): I (Degree of irritation 0-0.1: Grade I (unstimulated)); Test result (number of subject) (+) ([4]; content 0.5 wt %): 0; Test result (number of subject) (++) ([4]; content 0.5 wt %): 0; Test result (number of subject) (±) ([4]; content 0.5 wt %): 0; Test result (number of subject) (−) ([4]; content 0.5 wt %): 20; Degree of irritation ([4]; content 0.5 wt %): 0; Grade for skin irritation ([4]; content 0.5 wt %): I (Degree of irritation 0-0.1: Grade I (unstimulated)); Test result (number of subject) (+) ([4]; content 1.0 wt %): 0; Test result (number of subject) (++) ([4]; content 1.0 wt %): 0; Test result (number of subject) (±) ([4]; content 1.0 wt %): 2; Test result (number of subject) (−) ([4]; content 1.0 wt %): 18; Degree of irritation ([4]; content 1.0 wt %): 0.10; Grade for skin irritation ([4]; content 1.0 wt %): I (Degree of irritation 0-0.1: Grade I (unstimulated)); Formaldehyde GC Area, 30 min [5]: 0.182 mAU*min; Formaldehyde GC Area, 180 min [5]: 0 mAU*min; Formaldehyde GC Area, Initial [5]: 0.305 mAU*min; Total amount (Cu, Zn, Mn, Ni, Cd) [6]: ≤5 ppm |
| O=C(O)c1ccc(N2CCCN(c3ccc(C(=O)O)cc3)CCN(c3ccc(C(=O)O)cc3)CCCN(c3ccc(C(=O)O)cc3)CC2)cc1 [Embodiment 10, 4,4′,4″,4′″-(1,4,8,11-tetraazacyclotetradecane-1,4,8,11-tetrayl)tetrabenzoic Acid] | 39 ppm | 156% | 42 ppm | 168% | 46 ppm | 184% | 58 ppm | 141% | 65 ppm | 159% | 71 ppm | 173% | 79 ppm | 161% | 92 ppm | 188% | 94 ppm | 192% | 0 | 0 | Test result (number of subject) (±) ([4]; content 0.1 wt %): 0; Test result (number of subject) (−) ([4]; content 0.1 wt %): 20; Degree of irritation ([4]; content 0.1 wt %): 0; Grade for skin irritation ([4]; content 0.1 wt %): I (Degree of irritation 0-0.1: Grade I (unstimulated)); Test result (number of subject) (+) ([4]; content 0.5 wt %): 0; Test result (number of subject) (++) ([4]; content 0.5 wt %): 0; Test result (number of subject) (±) ([4]; content 0.5 wt %): 0; Test result (number of subject) (−) ([4]; content 0.5 wt %): 20; Degree of irritation ([4]; content 0.5 wt %): 0; Grade for skin irritation ([4]; content 0.5 wt %): I (Degree of irritation 0-0.1: Grade I (unstimulated)); Test result (number of subject) (+) ([4]; content 1.0 wt %): 0; Test result (number of subject) (++) ([4]; content 1.0 wt %): 0; Test result (number of subject) (±) ([4]; content 1.0 wt %): 1; Test result (number of subject) (−) ([4]; content 1.0 wt %): 19; Degree of irritation ([4]; content 1.0 wt %): 0.05; Grade for skin irritation ([4]; content 1.0 wt %): I (Degree of irritation 0-0.1: Grade I (unstimulated)); Formaldehyde GC Area, 30 min [5]: 0.171 mAU*min; Formaldehyde GC Area, 180 min [5]: 0 mAU*min; Formaldehyde GC Area, Initial [5]: 0.305 mAU*min; Total amount (Cu, Zn, Mn, Ni, Cd) [6]: ≤5 ppm |
| O=C(O)c1cncc(N2CCCN(c3cncc(C(=O)O)c3)CCN(c3cncc(C(=O)O)c3)CCCN(c3cncc(C(=O)O)c3)CC2)c1 [Embodiment 11, 5,5′,5″,5′″-(1,4,8,11-tetraazacyclotetradecane-1,4,8,11-tetrayl)tetranicotinic Acid] | 38 ppm | 152% | 41 ppm | 164% | 47 ppm | 188% | 59 ppm | 144% | 66 ppm | 161% | 70 ppm | 171% | 79 ppm | 161% | 88 ppm | 180% | 93 ppm | 190% | 0 | 0 | Test result (number of subject) (±) ([4]; content 0.1 wt %): 0; Test result (number of subject) (−) ([4]; content 0.1 wt %): 20; Degree of irritation ([4]; content 0.1 wt %): 0; Grade for skin irritation ([4]; content 0.1 wt %): I (Degree of irritation 0-0.1: Grade I (unstimulated)); Test result (number of subject) (+) ([4]; content 0.5 wt %): 0; Test result (number of subject) (++) ([4]; content 0.5 wt %): 0; Test result (number of subject) (±) ([4]; content 0.5 wt %): 0; Test result (number of subject) (−) ([4]; content 0.5 wt %): 20; Degree of irritation ([4]; content 0.5 wt %): 0; Grade for skin irritation ([4]; content 0.5 wt %): I (Degree of irritation 0-0.1: Grade I (unstimulated)); Test result (number of subject) (+) ([4]; content 1.0 wt %): 0; Test result (number of subject) (++) ([4]; content 1.0 wt %): 0; Test result (number of subject) (±) ([4]; content 1.0 wt %): 2; Test result (number of subject) (−) ([4]; content 1.0 wt %): 18; Degree of irritation ([4]; content 1.0 wt %): 0.10; Grade for skin irritation ([4]; content 1.0 wt %): I (Degree of irritation 0-0.1: Grade I (unstimulated)); Formaldehyde GC Area, 30 min [5]: 0.174 mAU*min; Formaldehyde GC Area, 180 min [5]: 0 mAU*min; Formaldehyde GC Area, Initial [5]: 0.305 mAU*min; Total amount (Cu, Zn, Mn, Ni, Cd) [6]: ≤5 ppm |
